Assay results: US4250259A, “Microbiological production of ketones from C3 -C6 secondary alcohols” (priority 1979, dated 1981)

Assays:
[1] = system: Hansenula polymorpha ATCC 26012; test: sec-alcohols to ketones by cell suspensions of yeasts; assay type: cell-based
[2] = system: cell extracts (NAD+-dependent secondary alcohol dehydrogenase); test: sec-alcohols to methyl ketones by cell extracts of yeasts, gas chromatography; assay type: biochemical, Torulopsis sp. strain A1 NRRL-Y-11,419; conditions: grown on methanol
Pichia sp. NRRL-Y-11328 = test: sec-alcohols to ketones by cell suspensions of yeasts; assay type: cell-based
[3] = system: cell extracts (NAD+-dependent secondary alcohol dehydrogenase); test: sec-alcohols to methyl ketones by cell extracts of yeasts, gas chromatography; assay type: biochemical, Hansenula polymorpha ATCC 26,012; conditions: grown on methanol
[4] = system: Kloeckera sp. Strain A2 (NRRLY-11,420); test: sec-alcohols to ketones by cell suspensions of yeasts; assay type: cell-based
[5] = system: purified secondary alcohol dehydrogenase (SADH); test: substrate specificity and Michaelis constants of purified SADH; assay type: biochemical, Pseudomonas sp. ATCC 21439
[6] = system: Methylococcus capsulatus, Texas (ATCC 19069); test: sec-alcohols to ketones by resting cell suspensions; assay type: cell-based
Procedure: (§1) The pH of the nutrient medium was adjusted to 7.0 by the addition of acid or base and 50 ml. samples of the nutrient medium were charged into a plurality of 300 ml. shaker flasks. The shaker flasks were inoculated with an inoculating loop of cells from an agar plate containing homogeneous colonies of the microorganisms on the plate (the purity of the isolates was confirmed by microscopic examination). The isolates had been maintained on methanol (0.4% V/V) agar plates or on agar plates under an atmosphere of methane and air having a 1:1 V/V gas ratio which had been transferred every two weeks. For growth on methanol, the medium was supplemented with 0.4% methanol. For growth on methane, the gaseous phase of the inoculated flasks was replaced with a gas mixture comprised of methane and air having a ratio of 1:1 on a V/V basis. The inoculated flasks were sealed air-tight and were incubated on a rotary shaker of orbital radius 2.5 cm. at 250 rpm and at 30° C. for two days until turbidity in the medium had developed. The cells were harvested by centrifugation at 10,000×g. at 4° C. for 30 minutes. The cell pellet was washed twice with a 0.05 M phosphate buffer at a pH of 7.0 (containing 0.02 M MgCl2). The washed cells were then suspended in a 0.05 M phosphate buffer at pH 7.0.
(§2) A 0.5 ml. sample of each washed cell suspension (2 mg. cells) was put into 10 ml. vials at 4° C. which were sealed with a rubber cap. The gaseous phase of the vials was removed with vacuum and then was replaced with a gas mixture of the substrate reactant (i.e., alkane or secondary alcohol) and oxygen at a 1:1 V/V ratio. (In the case of a liquid substrate, i.e., secondary alcohol, 10 μl of the substrate was put in the 10 ml. vials). […] Samples of product (1-3 μl) were withdrawn periodically with a microsyringe and the products were analyzed by gas chromatography (ionization flame detector column).
(§3) The procedure in Example 1 was repeated wherein a plurality of the methane-utilizing methylotrophic microorganisms were each grown aerobically in a nutrient medium containing methane as the alcohol dehydrogenase enzyme inducer and as the major carbon and energy source for growth. The cells were harvested and washed as described in Example 1. The resting microbial cells of the induced methane-grown methane-utilizing methylotrophic microorganisms were then contacted with C3 -C6 secondary alcohols in a buffered solution by the procedure of Example 1.
(§4) In this example, the procedure in Example 1 was repeated except that a plurality of methane-utilizing methylotrophic microorganisms were each aerobically grown in a methanol-containing nutrient medium instead of a methane-containing medium. The nutrients in the medium were the same as indicated in Example 1 except that 0.4% V/V methanol was used as the alcohol dehydrogenase inducer and major source of carbon and energy for growth. Following growth, the cells were harvested and washed as described in Example 1.
(§5) The resting cells of the induced methanol-grown methylotrophic microorganisms were then contacted with secondary alcohols in a buffered solution by the procedure described in Example 1.

[7] = system: Methylomonas methanica S1 (NRRL B-11,199); test: as above; assay type: cell-based
Procedure: as §1, §2, §3, §4, §5

[8] = system: Methylocystis parvus OBBP (NRRL B-11,198); test: as above; assay type: cell-based
Procedure: as §1, §2, §3, §4, §5

[9] = system: Methylobacter capsulatus Y (NRRL B-11,201); test: as above; assay type: cell-based
Procedure: as §1, §2, §3, §4, §5

Structure (SMILES) | Conversion Rate, sec-alcohol to corresponding ketone ([1]; Growth Substrate Ethanol) | Conversion Rate, sec-alcohol to corresponding ketone ([1]; Growth Substrate Methanol) | Conversion Rate, sec-alcohol to corresponding ketone ([1]; Growth Substrate Methylamine) | Conversion Rate, sec-alcohol to corresponding ketone ([1]; Growth Substrate Methylformate) | Conversion Rate, sec-alcohol to corresponding ketone ([1]; Growth Substrate Propylamine) | Conversion Rate, sec-alcohol to methyl ketone [2] | Conversion Rate, sec-alcohol to corresponding ketone (Pichia sp. NRRL-Y-11328; Growth Substrate Ethanol) | Conversion Rate, sec-alcohol to corresponding ketone (Pichia sp. NRRL-Y-11328; Growth Substrate Methanol) | Conversion Rate, sec-alcohol to corresponding ketone (Pichia sp. NRRL-Y-11328; Growth Substrate Methylamine) | Conversion Rate, sec-alcohol to corresponding ketone (Pichia sp. NRRL-Y-11328; Growth Substrate Methylformate) | Conversion Rate, sec-alcohol to corresponding ketone (Pichia sp. NRRL-Y-11328; Growth Substrate Propylamine) | Conversion Rate, sec-alcohol to methyl ketone [3] | Conversion Rate, sec-alcohol to corresponding ketone ([4]; Growth Substrate Ethanol) | Conversion Rate, sec-alcohol to corresponding ketone ([4]; Growth Substrate Methanol) | Conversion Rate, sec-alcohol to corresponding ketone ([4]; Growth Substrate Methylamine) | Conversion Rate, sec-alcohol to corresponding ketone ([4]; Growth Substrate Methylformate) | Conversion Rate, sec-alcohol to corresponding ketone ([4]; Growth Substrate Propylamine) | oxidation by purified SADH [5] | Conversion Rates, sec-alcohol to corresponding ketone ([6]; cells grown on methane) | Conversion Rates, sec-alcohol to corresponding ketone ([6]; cells grown on methanol) | further results
CCCCC(C)O (stereo not shown) [2-Hexanol, 2-hexanol] | 0.54 μmoles/hr/mg of protein | 0.72 μmoles/hr/mg of protein | 0.62 μmoles/hr/mg of protein | 0.70 μmoles/hr/mg of protein | 0.48 μmoles/hr/mg of protein | 0.21 μmoles/hr/mg Protein | 0.28 μmoles/hr/mg of protein | 0.50 μmoles/hr/mg of protein | 0.31 μmoles/hr/mg of protein | 0.48 μmoles/hr/mg of protein | 0.21 μmoles/hr/mg of protein | 0.51 μmoles/hr/mg Protein | 0.12 μmoles/hr/mg of protein | 0.25 μmoles/hr/mg of protein | 0.10 μmoles/hr/mg of protein | 0.28 μmoles/hr/mg of protein | 0.11 μmoles/hr/mg of protein | lower rate | 1.0 μmoles/hr/mg protein | 1.3 μn moles/hr/mg protein | Conversion Rates, sec-alcohol to corresponding ketone ([7]; cells grown on methane): 0.01 μmoles/hr/mg protein; Conversion Rates, sec-alcohol to corresponding ketone ([7]; cells grown on methanol): 0.04 μn moles/hr/mg protein; Conversion Rates, sec-alcohol to corresponding ketone ([8]; cells grown on methane): 0.065 μmoles/hr/mg protein; Conversion Rates, sec-alcohol to corresponding ketone ([8]; cells grown on methanol): 0.05 μn moles/hr/mg protein; Conversion Rates, sec-alcohol to corresponding ketone ([9]; cells grown on methane): 0.1 μmoles/hr/mg protein; Conversion Rates, sec-alcohol to corresponding ketone ([9]; cells grown on methanol): 0.12 μn moles/hr/mg protein
CCCC(C)O (stereo not shown) [2-Pentanol, 2-pentanol] | 1.1 μmoles/hr/mg of protein | 1.4 μmoles/hr/mg of protein | 1.2 μmoles/hr/mg of protein | 1.3 μmoles/hr/mg of protein | 0.82 μmoles/hr/mg of protein | 1.0 μmoles/hr/mg Protein | 1.0 μmoles/hr/mg of protein | 1.2 μmoles/hr/mg of protein | 0.72 μmoles/hr/mg of protein | 0.98 μmoles/hr/mg of protein | 0.60 μmoles/hr/mg of protein | 1.0 μmoles/hr/mg Protein | 1.0 μmoles/hr/mg of protein | 1.2 μmoles/hr/mg of protein | 1.0 μmoles/hr/mg of protein | 1.2 μmoles/hr/mg of protein | 0.92 μmoles/hr/mg of protein | lower rate | 2.5 μmoles/hr/mg protein | 3.5 μn moles/hr/mg protein | Conversion Rates, sec-alcohol to corresponding ketone ([7]; cells grown on methane): 0.25 μmoles/hr/mg protein; Conversion Rates, sec-alcohol to corresponding ketone ([7]; cells grown on methanol): 0.45 μn moles/hr/mg protein; Conversion Rates, sec-alcohol to corresponding ketone ([8]; cells grown on methane): 0.80 μmoles/hr/mg protein; Conversion Rates, sec-alcohol to corresponding ketone ([8]; cells grown on methanol): 0.82 μn moles/hr/mg protein; Conversion Rates, sec-alcohol to corresponding ketone ([9]; cells grown on methane): 0.5 μmoles/hr/mg protein; Conversion Rates, sec-alcohol to corresponding ketone ([9]; cells grown on methanol): 0.60 μn moles/hr/mg protein
